The values below come from publication PMC4445455 (The FEBS journal, 2015).

Where two headings read alike, the source gives them in different places.

The target of data set [1] is T1, E. coli DHFR (Escherichia coli, UniProt P0ABQ4). Type of data set: biochemical. The settings on record: for inhibition at 1 mM inhibitor concentration (in words): E. coli DHFR.
A further data set relates to cancer cells. The conditions noted are these: previous study; cited from earlier work.
The conditions of data set [2]: previous study; cited from earlier work.
Data set [3] deals with T2, human DHFR (Homo sapiens, UniProt P00374).
T2 sequence (P00374 1-187): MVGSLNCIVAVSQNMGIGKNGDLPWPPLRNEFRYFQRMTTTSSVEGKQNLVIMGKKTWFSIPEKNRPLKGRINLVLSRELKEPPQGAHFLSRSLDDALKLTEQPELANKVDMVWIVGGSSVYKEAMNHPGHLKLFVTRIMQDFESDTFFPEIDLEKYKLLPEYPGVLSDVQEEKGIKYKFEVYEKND
Type of data set: biochemical.

Data set [4] concerns the target T1, E. coli DHFR. The conditions noted are these: product inhibition; cited from earlier work.
Data set [5] deals with T2, human DHFR. The settings on record: product inhibition; cited from earlier work.
For data set [6], the target named is T1, E. coli DHFR. The data set is described as follows: Inhibition kinetics: substrate titration at fixed inhibitor concentrations. Type of data set: biochemical.
The target in data set [7] is T1, E. coli DHFR. Put plainly: Progress curve analysis, slow tight binding. The format is biochemical.
Data set [8] has as its target T2, human DHFR. The data set is described as follows: Progress curve analysis, slow tight binding, human DHFR. The conditions noted are these: time course of NADPH depletion. Type of data set: biochemical.
Setting [9] is: IC-50, human DHFR 12.4 nM, 60 μM NADPH, 50 μM H2F, 100 mM HEPES pH 7.3.

T1 sequence (P0ABQ4 whole entry): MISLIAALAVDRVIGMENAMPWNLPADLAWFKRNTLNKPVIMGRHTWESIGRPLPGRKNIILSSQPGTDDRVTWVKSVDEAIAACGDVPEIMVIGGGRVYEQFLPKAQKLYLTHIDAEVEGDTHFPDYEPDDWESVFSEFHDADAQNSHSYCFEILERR

Usually IC50 stands for the midpoint of a concentration-inhibition curve. One may read the Ki as a dissociation constant, usually derived from enzyme kinetics or from competition with a known ligand. A higher Ki goes with lower affinity. As for `O=C(Nc1ccc(Oc2ccc(NC(=O)Nc3ccc([N+](=O)[O-])cc3)cc2)cc1)Nc1ccc([N+](=O)[O-])cc1` [NNCPPU, 1-(4-nitrophenyl)-3-[4-[4-[(4-nitrophenyl)carbamoylamino]phenoxy]phenyl]urea], at E. coli DHFR [1], the midpoint of inhibition, the IC50, lay at 36.6 ± 1.1 µM; the inhibition constant Ki was 2.06 ± 0.378 µM; the “inhibition at 1 mM inhibitor concentration (in words)” value (shortened to “inhibition”) is reported as “almost complete inhibition”. In addition, in the data set with cancer cells, the “activity against cancer cells” value is listed as “didn't show”. The bactericidal activity result in [2] was “didn't show”. On human DHFR [3], this molecule had a Ki of 1.97 ± 0.329 µM. Further, the IC50 at human DHFR [3] (setting [9]) was found to be 68.9 ± 1.36 µM. Moreover, in the data set “Solubility in water”, the solubility in water result was “sparsely soluble in water”.
On to `NC(=O)c1ccc[n+]([C@@H]2O[C@H](COP(=O)([O-])OP(=O)(O)OC[C@H]3O[C@@H](n4cnc5c(N)ncnc54)[C@H](OP(=O)(O)O)[C@@H]3O)[C@@H](O)[C@H]2O)c1` [NADP^+], for which the IC50 is approximately 5000 µM on E. coli DHFR [4] and approximately 620 µM on human DHFR [5].
As for `Nc1ccc(-c2nc3nc(N)nc(N)c3nc2-c2ccc(N)cc2)cc1` [NSC61642, 6,7-bis (4-aminophenyl) pteridine-2,4-diamine, reference compound], on E. coli DHFR [1], the “inhibition” value is reported as “unambiguous inhibition”.
For the molecule `Nc1ccc(NC(=O)c2ccc(C(=O)Nc3ccc(N)cc3)cc2)cc1` [NNBABD, N,N'-bis(4-aminophenyl)benzene-1,4-dicarboxamide], the 50% inhibitory concentration (IC50) against E. coli DHFR [1] worked out at 176.5 ± 1.1 µM; against human DHFR [3] (setting [9]), 254.5 ± 1.79 µM. Also, the Ki at E. coli DHFR [1] amounted to 10.9 ± 2.16 µM; on human DHFR [3], 5.16 ± 1.41 µM. Further, on E. coli DHFR [1], the “inhibition” value is on record as “almost complete inhibition”. Further, the “activity against cancer cells” value in the data set on cancer cells was “didn't show”. For the same molecule, the bactericidal activity result in [2] is “didn't show”. The solubility in water entry in the data set “Solubility in water” was “sparsely soluble in water”.
By Kd is commonly meant the equilibrium constant for the complex coming apart. Read a low Kd as a tighter complex. One may read the kon as a measure of how fast the partners come together. Read a high kon as fast association. For the molecule `Nc1nc(N)c2c(ccc3[nH]ccc32)n1` [PQD, 7H-Pyrrolo(3,2-f)quinazoline-1,3-diamine, reference compound], the IC50 stood at 0.106 ± 0.0012 µM on E. coli DHFR [1]; 3.09 ± 0.17 µM against human DHFR [3] (IC-50, human DHFR); 3.087 ± 0.0165 µM against human DHFR [3] (setting [9]). Moreover, the inhibition constant (Ki) at E. coli DHFR [1] is 0.0042 ± 0.0005 µM; at E. coli DHFR [6] it was 0.00318 ± 0.00051 µM; on human DHFR [3], 0.0934 ± 0.009 µM. Moreover, the “inhibition” value against E. coli DHFR [1] is given as “unambiguous inhibition”. At E. coli DHFR [6] (uncompetitive inhibition, NADPH titrated), this molecule registered a αKi of 72.17 ± 4.23 nM. This molecule gave an equilibrium dissociation constant (Kd) on E. coli DHFR [7] of 0.00448 ± 0.00063 µM. The same molecule gave an on-rate (kon) at E. coli DHFR [7] of 350000 M⁻¹ s⁻¹. In addition, the “mode of inhibitor binding (time dependence, in words)” value at E. coli DHFR [7] (E. coli DHFR progress curves) is on record as “classical tight-binding reversible inhibition”; on human DHFR [8] it was “didn't show any slow-onset of inhibition”. The koff on E. coli DHFR [7] (time-dependent inactivation, 50 μM H2F, 60 μM NADPH) is 0.094 ± 0.010 min^1. For the same molecule, the “fold reduction in potency (IC-50) for human DHFR vs E. coli DHFR” value on human DHFR [3] (selectivity human/E. coli) was 30 fold.
Consider `C#CCC(Cc1cnc2nc(N)nc(N)c2n1)c1ccc(C(=O)N[C@@H](CCC(=O)O)C(=O)O)cc1` (stereo partly drawn) [NSC754230, pralatrexate, reference compound], for which, at E. coli DHFR [1], the “inhibition” value was “unambiguous inhibition”.
At E. coli DHFR [1], `C1=Cc2ccccc2Nc2ccccc21` [ISB, 2,2'-Iminostilbene] showed a 50% inhibitory concentration (IC50) of 587.8 ± 1.2 µM and an inhibition constant Ki of 35.2 ± 5.36 µM. The molecule also gave an IC50 on human DHFR [3] (IC-50, human DHFR, table footnote to ND) of more than 2000 µM. Besides, the solubility in water result in the data set “Solubility in water” is recorded as “sparsely soluble in water”.
Take `Nc1nc2[nH]cc(CCc3ccc(C(=O)N[C@@H](CCC(=O)O)C(=O)O)cc3)c2c(=O)[nH]1` [NSC698037, pemetrexed, reference compound]: the “inhibition” value at E. coli DHFR [1] is “unambiguous inhibition”.
